Laboratory results as given in BindingDB's records for patent US20250122174 (Shenzhen Yuanli Shenwan Innovative Medicine, 2025).

Target: Mitogen-activated protein kinase kinase kinase kinase 1 (Homo sapiens, UniProt Q92918)
Assay: HPK1 Inhibition Assay
Description: A stock solution of 10 mM test compound was prepared in DMSO. The compound was prepared by 5-fold and 10-point serial dilutions with HPK1 kinase assay buffer. The HPK1 kinase assay buffer contained 40 mM Tris, pH 7.5; 20 mM MgCl2, 0.1 mg/ml BSA, and 50 μM DTT. 7.5 ng/μl of Active HPK1 (Promega, V4098) and 0.1 μg/ml MBP substrate protein were added to the reaction system. The final concentration of ATP in the HPK1 kinase reaction system was 10 μM. Serial diluted compounds were transferred to the reaction system and incubated at room temperature for 1 hr. 5 μL of ADP-Glo™ Reagent (Promega, V9101) was added and incubated for 40 min to stop the kinase reaction and deplete the unconsumed ATP. […] The luminescence was measured with a plate-reading luminometer.

Mitogen-activated protein kinase kinase kinase kinase 1, sequence (Q92918 whole entry): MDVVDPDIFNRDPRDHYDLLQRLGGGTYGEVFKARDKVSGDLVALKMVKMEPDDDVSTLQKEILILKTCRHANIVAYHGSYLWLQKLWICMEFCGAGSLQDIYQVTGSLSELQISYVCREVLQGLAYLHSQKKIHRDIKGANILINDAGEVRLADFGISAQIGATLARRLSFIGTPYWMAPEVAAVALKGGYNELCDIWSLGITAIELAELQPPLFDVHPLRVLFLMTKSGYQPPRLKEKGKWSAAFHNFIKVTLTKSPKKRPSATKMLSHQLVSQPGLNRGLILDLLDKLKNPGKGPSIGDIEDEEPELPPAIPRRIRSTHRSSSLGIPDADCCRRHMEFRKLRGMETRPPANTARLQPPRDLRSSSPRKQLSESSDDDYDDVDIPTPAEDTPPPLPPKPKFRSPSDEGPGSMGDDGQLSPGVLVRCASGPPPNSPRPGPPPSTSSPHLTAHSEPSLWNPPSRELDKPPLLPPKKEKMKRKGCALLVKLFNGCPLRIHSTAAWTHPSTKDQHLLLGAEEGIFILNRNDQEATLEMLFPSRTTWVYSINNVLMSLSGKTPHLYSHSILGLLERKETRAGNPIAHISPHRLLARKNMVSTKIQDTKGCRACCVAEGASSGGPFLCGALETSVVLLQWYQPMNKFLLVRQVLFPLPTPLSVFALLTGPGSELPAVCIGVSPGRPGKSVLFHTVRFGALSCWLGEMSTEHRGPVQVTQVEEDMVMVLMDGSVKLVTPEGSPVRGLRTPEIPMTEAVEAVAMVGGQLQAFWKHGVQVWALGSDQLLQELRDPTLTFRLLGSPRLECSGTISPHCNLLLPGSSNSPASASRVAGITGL

IC50, < 100 nM:
Cn1c(-c2ccncc2F)nc2c(N3CCC[C@H]3CN)c(NC(=O)c3ccnn(-c4c(F)cccc4F)c3=O)ccc21 [US20250122174, Example 43]
Cc1nc2c(N3C[C@@H]4C[C@H]3CN4)c(NC(=O)c3ccc(=O)n(-c4c(F)cccc4F)n3)ccc2n1C [US20250122174, Example 75]
Cc1nc2c(N3CCNC(=O)C3)c(NC(=O)c3ccc(=O)n(-c4c(F)cccc4F)n3)ccc2n1C [US20250122174, Example 83]
Cc1nc2c(N3CC[C@@H](N)C3)c(NC(=O)c3ccc(=O)n(-c4c(Cl)cccc4Cl)n3)ccc2n1C [US20250122174, Example 108]
CC(C)c1nc2c(N3CC[C@H]4NCC[C@H]43)c(NC(=O)c3ccc(=O)n(-c4c(F)cccc4F)n3)ccc2n1C [US20250122174, Example 135]
CC(C)n1ncc2c(N3CCC(N)CC3)c(NC(=O)c3ccc(=O)n(-c4c(F)cccc4F)n3)ccc21 [US20250122174, Example 184]
